Source: patent publication US20240108641A1, “COMPOSITIONS FOR ORAL ADMINISTRATION OF ZOLEDRONIC ACID OR RELATED COMPOUNDS FOR TREATING DISEASE” (ANTECIP BIOVENTURES II LLC, priority 2012, published 2024)

Tests used:
[1] = system: complex regional pain syndrome (CRPS); test: rat tibia fracture model of complex regional pain syndrome, dosing from day of fracture; format: in vivo
Experimental: The effect of orally administered zoledronic acid was examined in the rat tibia fracture model of complex regional pain syndrome (CRPS). CRPS was induced in the rats by fracturing the right distal tibias of the animals and casting the fractured hindpaws for 4 weeks, as described in Guo T Z et al. (Pain. 2004; 108: 95-107).
Animals were orally administered either vehicle (control) or zoledronic acid, in a dosage of 18 mg/m^2/day (3 mg/kg/day) for 28 days, starting on the day of fracture and casting. Drug was dissolved in distilled water and administered by gavage. Animals were fasted for 4 hours before and 2 hours after dosing. At the end of the 28-day period, casts were removed, and on the following day, the rats were tested for hindpaw pain, edema, and warmth.
Pain was assessed by measuring hyperalgesia, and weight bearing.
To measure hyperalgesia, an up-down von Frey testing paradigm was used. Rats were placed in a clear plastic cylinder (20 cm in diameter) with a wire mesh bottom and allowed to acclimate for 15 minutes. The paw was tested with one of a series of eight von Frey hairs ranging in stiffness from 0.41 g to 15.14 g. The von Frey hair was applied against the hindpaw plantar skin at approximately midsole, taking care to avoid the tori pads. The fiber was pushed until it slightly bowed and then it was jiggled in that position for 6 seconds. Stimuli were presented at an interval of several seconds. Hindpaw withdrawal from the fiber was considered a positive response. […]
An incapacitance device (IITC Inc. Life Science, Woodland, CA, USA) was used to measure hindpaw weight bearing, a postural effect of pain. […] Eight readings (excluding the highest and lowest ones) were averaged to calculate the bilateral hindpaw weight-bearing values. Weight bearing data were analyzed as the ratio between right (fracture) and left hindpaw weight bearing values ((2R/(R+L))×100%). […]
The temperature of the hindpaw was measured using a fine wire thermocouple (Omega, Stanford, CT, USA) applied to the paw skin. […]

[2] = system: health-related quality of life (RAND-36); test: randomized placebo-controlled trial in chronic low back pain with Modic changes, RAND-36 quality of life; format: in vivo, human; details: for RAND-36 Mental component, Unadjusted analyses Difference (95% CI) / RAND-36 Physical component, Unadjusted analyses Difference (95% CI) / Total RAND-36, Unadjusted analyses Difference (95% CI) / RAND-36 Mental component, Adjusted analyses Difference (95% CI) / RAND-36 Physical component, Adjusted analyses Difference (95% CI) / Total RAND-36, Adjusted analyses Difference (95% CI): ZA versus placebo; for RAND-36 Mental component, Adjusted analyses Difference (95% CI) / RAND-36 Physical component, Adjusted analyses Difference (95% CI) / Total RAND-36, Adjusted analyses Difference (95% CI): adjusted for baseline; for RAND-36 Mental component, Mean (SD) change / RAND-36 Mental component, Mean (SD) original values / RAND-36 Physical component, Mean (SD) change / RAND-36 Physical component, Mean (SD) original values / Total RAND-36, Mean (SD) change / Total RAND-36, Mean (SD) original values: single 5 mg IV infusion
Experimental: A study was performed to evaluate the efficacy of a single intravenous infusion of 5 mg ZA in comparison with intravenous placebo infusion among patients with chronic low back pain (LBP) and Modic changes on MRI. This study was a double-blinded, randomized, placebo-controlled clinical trial in patients with low back pain (LBP). Patients were included in the study if they had low back symptoms for at least three months, an LBP of at least six (6) on a 10-cm Visual Analog Scale (VAS) or an Oswestry Disability Index (ODI) of at least 30%, and an M1, mixed M1/2 or M2 type change on MRI performed within six months at most prior to enrolment.
After confirmation of eligibility patients were randomized to receive a single intravenous infusion of 5 mg zoledronic acid (n=20) or 100 ml saline as placebo (n=20) over a 15-minute period. Information on use of the concomitant medication and hospital admissions were recorded. Blood samples were taken for the assessment of safety, inflammatory mediators and markers of bone turnover at baseline, one month and one year.
Clinical assessments were performed 14 days before enrolment (screening visit), and follow-up visits at one month and one year after the infusion. The primary outcome was the change in the intensity of LBP on VAS. Secondary outcomes included leg pain intensity, ODI, health-related quality of life assessed with RAND-36, patient-reported sick leaves and lumbar flexibility. These outcome measures were assessed at baseline and at each follow-up. Lumbar flexibility was evaluated using the fingers-to-floor and trunk side bending measures (in cm). The percentage of patients undergoing a 20% relative improvement, the proportion of patients reaching a VAS score of 40 or less in the primary outcome, and patient acceptable symptom state (PASS) were also assessed. Pain medication use was inquired about during the follow-up visits.

[3] = 18 mg/m^2/day oral for 28 days from fracture

O=P(O)(O)C(O)(Cn1ccnc1)P(=O)(O)O [zoledronic acid]
overall effect compared to vehicle treated animals ([1]; 18 mg/m^2/day (3 mg/kg/day) oral for 28 days from fracture): reversed pain, restored weight bearing, and prevented edema
hindlimb weight bearing [1, 3]: 86 % of normal
reversal of fracture induced pain (von Frey) as compared to vehicle [1, 3]: 77%
RAND-36 Mental component, Unadjusted analyses Difference (95% CI) ([2]; 1 mo.): 2.0 (−2 to 6)
RAND-36 Physical component, Unadjusted analyses Difference (95% CI) ([2]; 1 mo.): 0.3 (−4 to 5)
Total RAND-36, Unadjusted analyses Difference (95% CI) ([2]; 1 mo.): 1.2 (−3 to 5)
RAND-36 Mental component, Adjusted analyses Difference (95% CI) ([2]; 1 mo.): 1.6 (−2 to 5)
RAND-36 Physical component, Adjusted analyses Difference (95% CI) ([2]; 1 mo.): 1.3 (−3 to 6)
Total RAND-36, Adjusted analyses Difference (95% CI) ([2]; 1 mo.): 1.3 (−3 to 5)
RAND-36 Mental component, Mean (SD) change ([2]; 1 mo.): 1.0 (6.1)
RAND-36 Mental component, Mean (SD) original values ([2]; 1 mo.): 50 (9)
RAND-36 Physical component, Mean (SD) change ([2]; 1 mo.): 0.1 (8.6)
RAND-36 Physical component, Mean (SD) original values ([2]; 1 mo.): 52 (9)
Total RAND-36, Mean (SD) change ([2]; 1 mo.): 0.6 (6.4)
Total RAND-36, Mean (SD) original values ([2]; 1 mo.): 51 (8)
RAND-36 Mental component, Unadjusted analyses Difference (95% CI) ([2]; 12 mos.): 3.5 (−2 to 9)
RAND-36 Physical component, Unadjusted analyses Difference (95% CI) ([2]; 12 mos.): 0.7 (−5 to 6)
Total RAND-36, Unadjusted analyses Difference (95% CI) ([2]; 12 mos.): 2.1 (−3 to 7)
RAND-36 Mental component, Adjusted analyses Difference (95% CI) ([2]; 12 mos.): 2.7 (−2 to 7)
RAND-36 Physical component, Adjusted analyses Difference (95% CI) ([2]; 12 mos.): 2.1 (−3 to 7)
Total RAND-36, Adjusted analyses Difference (95% CI) ([2]; 12 mos.): 2.2 (−2 to 7)
RAND-36 Mental component, Mean (SD) change ([2]; 12 mos.): 1.8 (9.0)
RAND-36 Mental component, Mean (SD) original values ([2]; 12 mos.): 51 (9)
RAND-36 Physical component, Mean (SD) change ([2]; 12 mos.): 0.3 (10)
RAND-36 Physical component, Mean (SD) original values ([2]; 12 mos.): 52 (8)
Total RAND-36, Mean (SD) change ([2]; 12 mos.): 1.0 (8.7)
Total RAND-36, Mean (SD) original values ([2]; 12 mos.): 51 (8)
